From ChEMBL document CHEMBL3045909, “Synthesis and antitumor studies of novel benzopyrano-1,2,3-selenadiazole and spiro[benzopyrano]-1,3,4-thiadiazoline derivatives” (Med Chem Res, 2013)
The source made the active and inactive calls. The calls are words filed in the database; no cut-off is given here.

Assays:
WI-38 = test: Cytotoxicity against Homo sapiens (human) WI38 cells assessed as inhibition of cell survival after 96 hr; type: functional, cell-based; conditions: WI-38, 96 h
HepG2 = test: Cytotoxicity against Homo sapiens (human) HepG2 cells assessed as inhibition of cell survival after 96 hr; type: functional, cell-based; conditions: HepG2, 96 h
MCF7 = test: Cytotoxicity against Homo sapiens (human) MCF7 cells assessed as inhibition of cell survival after 96 hr; type: functional, cell-based; conditions: MCF7, 96 h
Vero = test: Cytotoxicity against Chlorocebus aethiops (African green monkey) Vero cells assessed as inhibition of cell survival after 96 hr; type: functional, cell-based; conditions: Chlorocebus sabaeus
Mus musculus [1] = test: Increase in hemoglobin content in Ehrlich ascites carcinoma xenografted Swiss albino Mus musculus (mouse) blood at 20 mg/kg, ip qd for 9 days administered at 24 hr after tumour cell inoculation measured on day 14 post-tumor cell implantation (reference value: 8.70 g/dl); type: functional; conditions: route intraperitoneal
Ehrlich [2] = test: Antitumor activity against Ehrlich ascites carcinoma cells xenografted in Swiss albino Mus musculus (mouse) assessed as decrease in abdominal ascites at 20 mg/kg, ip qd for 9 days administered at 24 hr after tumour cell inoculation; type: functional, organism-based; parameters: dose 20 mg/kg
Ehrlich [3] = test: Antitumor activity against Ehrlich ascites carcinoma cells xenografted in Swiss albino Mus musculus (mouse) assessed as decrease in tumour size at 50 mg/kg, ip qd for 9 days administered at 24 hr after tumour cell inoculation; type: functional, organism-based; parameters: dose 50 mg/kg
[4] = Antitumor activity against Ehrlich ascites carcinoma cells xenografted in Swiss albino Mus musculus (mouse) assessed as carcinoma cell viability at 20 mg/kg, ip qd for 5 days administered at 24 hr after tumour cell inoculation by trypan blue assay (reference value: 220x10^6/ml); type: functional; conditions: route intraperitoneal
Ehrlich [5] = test: Antitumor activity against Ehrlich ascites carcinoma cells xenografted in Swiss albino Mus musculus (mouse) assessed as decrease in abdominal ascites at 50 mg/kg, ip qd for 9 days administered at 24 hr after tumour cell inoculation; type: functional, organism-based; parameters: dose 50 mg/kg
Mus musculus [6] = test: Neurotoxicity in Ehrlich ascites carcinoma xenografted Swiss albino Mus musculus (mouse) assessed as effect on tremor, twitch, jumping, drowsy at >500 mg/kg, ip qd for 9 days administered at 24 hr after tumour cell inoculation; type: toxicity, organism-based; conditions: in vivo
[7] = Acute toxicity in ip dosed Ehrlich ascites carcinoma xenografted Swiss albino Mus musculus (mouse) assessed as mortality administered once a day for 9 days at 24 hr after tumour cell inoculation; type: organism-based; conditions: in vivo
[8] = Antitumor activity against Ehrlich ascites carcinoma cells xenografted in Swiss albino Mus musculus (mouse) assessed as increase in lifespan at 20 mg/kg, ip qd for 9 days administered at 24 hr after tumour cell inoculation; type: functional; conditions: route intraperitoneal
Mus musculus [9] = test: Acute toxicity in Ehrlich ascites carcinoma xenografted Swiss albino Mus musculus (mouse) assessed as decrease in locomotor activity at >500 mg/kg, ip qd for 9 days administered at 24 hr after tumour cell inoculation; type: organism-based; conditions: in vivo
Mus musculus [10] = test: Increase in hematocrit content in Ehrlich ascites carcinoma xenografted Swiss albino Mus musculus (mouse) blood at 20 mg/kg, ip qd for 9 days administered at 24 hr after tumour cell inoculation measured on day 14 post-tumor cell implantation (reference value: 35.50%); type: functional; conditions: route intraperitoneal
[11] = Antitumor activity against Ehrlich ascites carcinoma cells xenografted in Swiss albino Mus musculus (mouse) assessed as mean survival time at 20 mg/kg, ip qd for 9 days administered at 24 hr after tumour cell inoculation (reference value: 9.10/day); type: functional; conditions: route intraperitoneal
Ehrlich [12] = test: Antitumor activity against Ehrlich ascites carcinoma cells xenografted in Swiss albino Mus musculus (mouse) assessed as decrease in tumour size at 20 mg/kg, ip qd for 9 days administered at 24 hr after tumour cell inoculation; type: functional, organism-based; parameters: dose 20 mg/kg
[13] = Antitumor activity against Ehrlich ascites carcinoma cells xenografted in Swiss albino Mus musculus (mouse) assessed as mean survival time at 50 mg/kg, ip qd for 9 days administered at 24 hr after tumour cell inoculation (reference value: 9.10/day); type: functional; conditions: route intraperitoneal
[14] = Antitumor activity against Ehrlich ascites carcinoma cells xenografted in Swiss albino Mus musculus (mouse) assessed as increase in lifespan at 50 mg/kg, ip qd for 9 days administered at 24 hr after tumour cell inoculation; type: functional; conditions: route intraperitoneal
Mus musculus [15] = test: Increase in hemoglobin content in Ehrlich ascites carcinoma xenografted Swiss albino Mus musculus (mouse) blood at 50 mg/kg, ip qd for 9 days administered at 24 hr after tumour cell inoculation measured on day 14 post-tumor cell implantation (reference value: 8.70 g/dl); type: functional; conditions: route intraperitoneal
Mus musculus [16] = test: Increase in hematocrit content in Ehrlich ascites carcinoma xenografted Swiss albino Mus musculus (mouse) blood at 50 mg/kg, ip qd for 9 days administered at 24 hr after tumour cell inoculation measured on day 14 post-tumor cell implantation (reference value: 35.50%); type: functional; conditions: route intraperitoneal
[17] = Antitumor activity against Ehrlich ascites carcinoma cells xenografted in Swiss albino Mus musculus (mouse) assessed as carcinoma cell viability at 50 mg/kg, ip qd for 5 days administered at 24 hr after tumour cell inoculation by trypan blue assay (reference value: 220x10^6/ml); type: functional; conditions: route intraperitoneal

Structure (SMILES)	IC50 (WI-38) [µM]	IC50 (HepG2) [µM]	IC50 (MCF7) [µM]	IC50 (Vero) [µM]	other results
NC(=O)N/N=C1\CC2(CCCCC2)Oc2ccc(O)cc21	160	150	70	80	–
Oc1ccc2c(c1)-c1nn[se]c1C1(CCCCCC1)O2	1610	1150	1490	1190	–
Oc1ccc2c(c1)-c1nn[se]c1C1(CCCC1)O2	70	60	60	60	–
CC(=O)NC1=NN(C(C)=O)C2(CC3(CCCCC3)Oc3ccc(OC(C)=O)cc32)S1 (stereo not drawn)	80	70	80	80	–
NC(=S)N/N=C1\CC2(CCCCCC2)Oc2ccc(O)cc21	1510	1440	1620	1440	–
CCC1(C)Oc2ccc(O)cc2-c2nn[se]c21 (stereo not drawn)	50	50	60	60	Activity (Mus musculus [1]): 10.5 g/dL; inhibition (Ehrlich [2]): Active; inhibition (Ehrlich [3]): Active; Activity [4]: 107 ×10⁶ /ml; inhibition (Ehrlich [5]): Active; Activity (Mus musculus [6]): Non-toxic; LD50 at 9 days [7]: 247 mg/kg; Activity [8]: 73.63%; Activity (Mus musculus [9]): Toxic; Activity (Mus musculus [10]): 43.7%; MST [11]: 15.8 days; inhibition (Ehrlich [12]): Active
O=C1CC2(CCCCC2)Oc2ccc(O)cc21	210	190	90	90	–
CC1(C)CC(=O)c2cc(O)ccc2O1	430	480	410	420	–
Oc1ccc2c(c1)-c1nn[se]c1C1(CCCCC1)O2	110	90	120	100	–
CC1(C)C/C(=N\NC(N)=O)c2cc(O)ccc2O1	140	120	150	170	–
O=C1CC2(CCCCCC2)Oc2ccc(O)cc21	1430	1450	1510	1320	–
NC(=O)N/N=C1\CC2(CCCC2)Oc2ccc(O)cc21	100	100	110	90	–
CC(=O)NC1=NN(C(C)=O)C2(CC3(CCCC3)Oc3ccc(OC(C)=O)cc32)S1 (stereo not drawn)	40	50	50	40	–
CCC1(C)CC2(SC(NC(C)=O)=NN2C(C)=O)c2cc(OC(C)=O)ccc2O1 (stereo not drawn)	840	620	1010	630	–
NC(=S)N/N=C1\CC2(CCCC2)Oc2ccc(O)cc21	100	100	100	90	–
O=c1[nH]cc(F)c(=O)[nH]1 [FLUOROURACIL]	20	70	20	–	MST [13]: 15.7 days; Activity [14]: 72.53%; Activity (Mus musculus [15]): 10 g/dL; Activity (Mus musculus [16]): 42.3%; Activity [17]: 123 ×10⁶ /ml
CC1(C)C/C(=N\NC(N)=S)c2cc(O)ccc2O1	120	140	140	150	–
O=C1CC2(CCCC2)Oc2ccc(O)cc21	510	460	640	740	–
NC(=O)N/N=C1\CC2(CCCCCC2)Oc2ccc(O)cc21	1120	1120	1120	1130	–
NC(=S)N/N=C1\CC2(CCCCC2)Oc2ccc(O)cc21	1120	820	1340	840	–
CCC1(C)CC(=O)c2cc(O)ccc2O1 (stereo not drawn)	150	150	150	150	–
CCC1(C)C/C(=N\NC(N)=S)c2cc(O)ccc2O1 (stereo not drawn)	60	60	60	60	–
CC1(C)Oc2ccc(O)cc2-c2nn[se]c21	70	60	60	50	–
CC(=O)NC1=NN(C(C)=O)C2(CC(C)(C)Oc3ccc(OC(C)=O)cc32)S1 (stereo not drawn)	30	30	30	30	Activity (Mus musculus [1]): 11.9 g/dL; inhibition (Ehrlich [2]): Active; inhibition (Ehrlich [3]): Active; Activity [4]: 110 ×10⁶ /ml; inhibition (Ehrlich [5]): Active; Activity (Mus musculus [6]): Non-toxic; LD50 at 9 days [7]: 248 mg/kg; Activity [8]: 98.9%; Activity (Mus musculus [9]): Toxic; Activity (Mus musculus [10]): 45%; MST [11]: 18.1 days; inhibition (Ehrlich [12]): Active
CCC1(C)C/C(=N\NC(N)=O)c2cc(O)ccc2O1 (stereo not drawn)	70	60	70	50	–
